Measured values reported in patent US10138282B2, “Peptide antagonist of LL-37” (INDIANA UNIVERSITY RESEARCH AND TECHNOLOGY CORPORATION, priority 2014, dated 2018).

Columns and labels:
Type in all cases: cell-based, human
[1] = tested on: TLR3 signaling; test: IL-6 production (ELISA) in BEAS-2B cells induced with poly(I:C); details: BEAS-2B cells
Method: (§1) IL-6 production was quantified by ELISA using the OptEIA™ kit (BD Biosciences). A typical assay used 2×10^4 BEAS-2B cells/well grown for 24 h in flat bottom 96-well plates. Poly(I:C) was added to a final concentration of 0.13 μg/ml. Antimicrobial peptides were added to the cell culture medium to a final concentration of 3 μM unless specified otherwise. All ELISA results shown were performed in triplicate and in at least three independent experiments.
To better define how residues in LL-37 contribute to function, several variants derived from LL-37 were tested for: 1) repression of TLR4 signaling by LPS, 2) enhancement of TLR3 signaling by poly(I:C), and 3) binding to LL-37. Signaling by TLR3 and TLR4 were monitored using ELISA to detect IL-6 secreted into the medium of BEAS-2B cells.

[2] = tested on: Reovirus dsRNA, Reo S4; test: IL-6 production in BEAS-2B cells in the presence of Reovirus dsRNA Reo S4
Method: as §1
Herein, we analyzed the LL-37 orthologs from Rhesus monkeys, pig, sheep, guinea pigs, rabbit, as well as mouse (FIG. 14A). All peptides were chemically synthesized and assayed for the induction of inflammatory cytokine IL-6 in the presence of the double-stranded RNA mimic, poly(I:C) or the Reovirus dsRNA, Reo S4 (FIGS. 14B and 14C). […] Importantly, all LL-37 orthologs tested had the ability to reduce IL-6 production in response to LPS (FIG. 14E).

[3] = tested on: Toll-like receptor 9; test: IL-6 production in BEAS-2B cells in the presence of ssDNA ligand ODN

PAMP-37: LL-37 ortholog from pig, SEQ ID NO: 22 (GLLSRLRDFLSDRGRRLGEKIERIGQKIKDLSEFFQS; (1)..(37) Pig PMAP-37; listed as Sus scrofa)
Enhancement of TLR3 signaling / poly(I:C)-induced IL-6, in words [1]: failed to enhance signaling | Enhancement of IL-6 production / signaling by Reo S4, in words [2]: failed to enhance signaling | Induction of signaling by the ssDNA ligand for Toll-like receptor 9, in words [3]: failed to induce signaling
